Values of other authors as cited in US20100330171A1, “Dietary Supplement for Eye Health” (priority 2008, published 2010).

What was measured:
[1] = tested on: tube formation; conditions: Matigel-induced tube formation assay
[2] = molecular target: VEGFR-2 (Homo sapiens, UniProt P35968); conditions: serum concentrations 0.01-1 microM
[3] = tested on: human umbilical vein endothelial cells (HUVEC)
[4] = tested on: phosophoinositide-dependent protein kinase, Akt, apoptosis signal-regulating kinase, p38; conditions: fibroblast growth factor-treated HUVEC
[5] = tested on: angiogenesis; conditions: chick chorioallantoic membrane assay
[6] = tested on: bovine endothelial cells; conditions: in vitro, bovine endothelial cells stimulated by FGF-2
[7] = tested on: human colon cancer cell line; conditions: by blocking the induction of VEGF
[8] = compared with ascorbic acid (vitamin C) and tocopherol (vitamin E)
[9] = molecular target: T1, leukocyte elastase (Homo sapiens, UniProt P08246)
T1 sequence (P08246 30-267): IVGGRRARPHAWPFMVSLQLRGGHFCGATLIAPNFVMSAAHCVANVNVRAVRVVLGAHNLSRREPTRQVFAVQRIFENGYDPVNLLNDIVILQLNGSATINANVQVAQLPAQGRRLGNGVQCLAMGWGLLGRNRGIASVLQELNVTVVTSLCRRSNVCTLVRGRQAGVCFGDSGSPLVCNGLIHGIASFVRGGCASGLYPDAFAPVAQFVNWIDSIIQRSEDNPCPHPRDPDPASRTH

[10] = molecular target: MMP-9 (Homo sapiens, UniProt P14780)
Chain of MMP-9 (P14780 94-707, species assumed): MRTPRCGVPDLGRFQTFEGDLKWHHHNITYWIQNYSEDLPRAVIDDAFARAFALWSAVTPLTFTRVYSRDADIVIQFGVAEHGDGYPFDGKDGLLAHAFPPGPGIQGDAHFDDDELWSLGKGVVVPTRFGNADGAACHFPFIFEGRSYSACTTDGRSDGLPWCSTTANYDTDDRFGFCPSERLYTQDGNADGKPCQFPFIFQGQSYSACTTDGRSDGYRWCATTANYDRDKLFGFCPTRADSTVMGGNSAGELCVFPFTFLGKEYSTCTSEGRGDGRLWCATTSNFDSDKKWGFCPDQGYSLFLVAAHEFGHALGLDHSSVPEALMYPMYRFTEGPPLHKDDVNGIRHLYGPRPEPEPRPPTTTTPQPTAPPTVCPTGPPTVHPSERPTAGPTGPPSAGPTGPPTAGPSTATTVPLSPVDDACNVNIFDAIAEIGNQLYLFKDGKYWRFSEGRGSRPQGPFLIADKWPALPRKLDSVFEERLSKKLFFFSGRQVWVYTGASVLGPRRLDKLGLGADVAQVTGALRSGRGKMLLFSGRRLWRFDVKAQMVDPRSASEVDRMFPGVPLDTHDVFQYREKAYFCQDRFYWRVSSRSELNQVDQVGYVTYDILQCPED

[11] = tested on: TNF-alpha

Chain of VEGFR-2 (P35968 20-1356, species assumed): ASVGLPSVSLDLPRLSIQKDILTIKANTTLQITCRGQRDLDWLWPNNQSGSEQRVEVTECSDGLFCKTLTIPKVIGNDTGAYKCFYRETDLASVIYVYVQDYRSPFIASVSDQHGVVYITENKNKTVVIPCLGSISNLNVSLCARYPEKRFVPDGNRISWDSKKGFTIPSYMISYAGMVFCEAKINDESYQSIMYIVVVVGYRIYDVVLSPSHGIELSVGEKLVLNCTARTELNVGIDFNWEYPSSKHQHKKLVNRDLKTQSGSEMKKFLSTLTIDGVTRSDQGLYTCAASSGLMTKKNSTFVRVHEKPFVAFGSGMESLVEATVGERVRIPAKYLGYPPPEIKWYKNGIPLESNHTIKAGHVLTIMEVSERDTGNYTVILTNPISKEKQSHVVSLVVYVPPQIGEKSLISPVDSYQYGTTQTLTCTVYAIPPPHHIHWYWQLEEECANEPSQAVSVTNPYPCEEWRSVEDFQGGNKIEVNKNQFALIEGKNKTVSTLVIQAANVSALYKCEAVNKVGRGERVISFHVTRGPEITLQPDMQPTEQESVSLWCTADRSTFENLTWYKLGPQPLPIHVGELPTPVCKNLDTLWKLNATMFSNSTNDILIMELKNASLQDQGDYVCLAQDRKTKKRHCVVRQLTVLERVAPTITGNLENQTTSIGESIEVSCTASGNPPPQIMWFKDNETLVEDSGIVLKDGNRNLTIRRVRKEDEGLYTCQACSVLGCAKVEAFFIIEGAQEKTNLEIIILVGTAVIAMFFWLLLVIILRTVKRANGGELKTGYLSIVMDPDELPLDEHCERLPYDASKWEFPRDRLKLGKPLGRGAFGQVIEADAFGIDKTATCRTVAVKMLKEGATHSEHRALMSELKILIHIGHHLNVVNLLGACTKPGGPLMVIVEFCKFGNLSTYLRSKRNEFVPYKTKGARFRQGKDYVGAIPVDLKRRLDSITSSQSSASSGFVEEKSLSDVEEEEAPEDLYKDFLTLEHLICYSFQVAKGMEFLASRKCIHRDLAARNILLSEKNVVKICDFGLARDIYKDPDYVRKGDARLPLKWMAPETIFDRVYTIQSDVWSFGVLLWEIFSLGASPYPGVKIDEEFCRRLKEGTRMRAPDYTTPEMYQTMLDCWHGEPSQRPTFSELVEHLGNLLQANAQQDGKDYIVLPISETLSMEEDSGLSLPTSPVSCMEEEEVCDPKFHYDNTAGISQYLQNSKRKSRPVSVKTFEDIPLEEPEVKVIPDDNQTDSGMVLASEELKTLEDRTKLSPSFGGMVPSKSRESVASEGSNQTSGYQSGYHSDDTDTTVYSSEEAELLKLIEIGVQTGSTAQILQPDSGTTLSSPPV

Row | Compound | tube formation [1] | inhibition of VEGF-dependent phosphorylation of VEGFR-2 [2] | suppression of fibroblast growth factor-induced proliferation, migration and tube formation [3] | phosphorylation of apoptosis signal-regulating kinase and p38 [4] | phosphorylation of phosophoinositide-dependent protein kinase and Akt [4] | formation of new blood vessels [5] | endothelial cell growth [6] | microvessel density [7] | quenching reactive oxygen species [8] | inhibition of leukocyte elastase [9] | inhibition of MMP-9 [10] | gene expression of TNF-alpha and the cytokines IL-1 beta and IL-10 induced by TNF-alpha [11]
1 | O=C(O[C@@H]1Cc2c(O)cc(O)cc2O[C@H]1c1ccc(O)c(O)c1)c1cc(O)c(O)c(O)c1 [CG, catechin-3 gallate] | almost completely abolished | inhibit | – | – | – | – | – | – | – | – | – | –
2 | CC(C)=CCC/C(C)=C/CC/C(C)=C/CC[C@]1(C)CCc2cc(O)c(C)c(C)c2O1 [γ-tocotrienol] | – | – | highest activity | increasing | suppressing | – | – | – | – | – | – | –
3 | Epigallocatechin-3-gallate [EGCG] | almost completely abolished | inhibit | – | – | – | block | suppress | reduces | more effective | inhibit | inhibits | block
